Our source for the cytotoxicity values is ChEMBL document CHEMBL3507680, “University of Dundee, Gates Library screen for HepG2 cell viability”.

A short description of this series: Human HepG2 cell viability assay in 384 well format. Format: toxicity, cell-based. On the set-up: dose 125 nL, time 70.5 hour; concentration not given beside the values. Particulars: HepG2 cells, read-out: Inhibition.
As to `O=C(CSC1=NS(=O)(=O)c2cc(F)ccc2N1)Nc1cccc(Cl)c1`, the cytotoxicity at 70.5 h was -2.86%.

As for `CC(C)(C)Nc1c(C2CCCN(C(=O)C3CC3)C2)nc2ccccn12` (centres undefined), the cytotoxicity at 70.5 h worked out at 17%.

As for `COc1nn(C)c2c1CCCN(C(=O)c1ccc3ccccc3n1)C2`, the cytotoxicity at 70.5 h was found to be 8.68%.

Turning to `O=C1CCOCCN1Cc1ccc(C(F)(F)F)c(F)c1`, the cytotoxicity at 70.5 h worked out at 14.1%.

`CC(C)C(=O)N1CCC(C2C(=O)Nc3ccccc32)CC1` (centres undefined): the cytotoxicity at 70.5 h was -16.1%.

Take `COc1ccccc1CN(Cc1nc(C)no1)C1CC1`: the cytotoxicity at 70.5 h is -20.3%.

Take `CCCc1nc(C)c(C(=O)NCCN2CCCCC2)s1`: the cytotoxicity at 70.5 h is -1.37%.

On to `O=C(Cc1ccc(F)cc1Cl)N[C@@H]1CCNC[C@H]1O`, for which the cytotoxicity at 70.5 h is -6%.

As for `CC1N(CC2CC2)C(=O)COC12CCN(C(=O)c1ccncc1)CC2` (centres undefined), the cytotoxicity at 70.5 h is -1.87%.

With `CNS(=O)(=O)c1cccc(S(=O)(=O)Nc2ncc(C)s2)c1`, the cytotoxicity at 70.5 h turned out to be 3.06%.

For the compound `O=C(Cc1ccsc1)N1CCn2cc(CN3CCCC3)nc2C1`, the cytotoxicity at 70.5 h was -5.43%.

On to `CCc1cc(C(=O)N2CCc3c(ncn3CCc3ccccc3)C2)[nH]n1`, for which the cytotoxicity at 70.5 h turned out to be 5.19%.

Regarding `Cc1cnn(CC2CN(CCS(C)(=O)=O)CCO2)c1` (centres undefined), the cytotoxicity at 70.5 h is -4.67%.

Turning to `CCc1nnc2n1CCN(C(=O)C(OC)c1ccccc1)C2` (centres undefined), the cytotoxicity at 70.5 h was -8.62%.

Turning to `O=C(Nc1cnn(-c2ccccc2Cl)c1)NC1CCC(O)CC1` (centres undefined), the cytotoxicity at 70.5 h was determined as 23.9%.

Turning to `COCC1c2nnn(CC3CC3)c2CCN1C(=O)N1CCCC1` (centres undefined), the cytotoxicity at 70.5 h turned out to be 14.1%.

In the case of `Cc1cc(N(C)Cc2snnc2C)nc(-c2cccnc2)n1`, the cytotoxicity at 70.5 h was -12.5%.

Regarding `CCC(=O)NC(CC(C)C)c1cccs1` (centres undefined), the cytotoxicity at 70.5 h was -14%.

For `Cc1cc2n(n1)CC(CNC1CCN(Cc3ccccc3C)CC1)CN2` (centres undefined), the cytotoxicity at 70.5 h is 5.18%.

On to `COc1ccc2c(C)c(C(=O)NCCCc3csc(N)n3)oc2c1`, for which the cytotoxicity at 70.5 h came to 8.41%.

`CCC[C@H]1CN(C(=O)CCn2ccccc2=O)C[C@@H]1NS(C)(=O)=O`: the cytotoxicity at 70.5 h was -16.2%.

Take `CCCn1c(C)c(CC(=O)NCCNC(C)=O)c2c1CC(C)(C)CC2=O`: the cytotoxicity at 70.5 h was 1.34%.

In the case of `Cc1cc(C2CCC2)nc(N2CCC3(CC2)OCCCC3O)n1` (centres undefined), the cytotoxicity at 70.5 h was -8.75%.

In the case of `O=C(Nc1ccc(-c2nc3c([nH]2)CCNC3)cc1)N1CCCC1`, the cytotoxicity at 70.5 h is -15.7%.

With `CC(C)CCN1C2(CCN(C(=O)C3(C)CC3)C2)c2ccccc2S1(=O)=O` (centres undefined), the cytotoxicity at 70.5 h was -9.44%.

Regarding `Cn1cc(CN2CCc3c(COCC4CC4)cncc3C2)cn1`, the cytotoxicity at 70.5 h was -1.91%.

With `Cn1nc(C#N)c2c1CN(C(=O)c1ccnnc1)CCC2`, the cytotoxicity at 70.5 h was found to be 0.526%.

As for `CN(CCc1cccs1)C(=O)Nc1cccc(S(C)(=O)=O)c1`, the cytotoxicity at 70.5 h was -2.36%.

On to `O=C(Nc1ccc(F)cc1)C(c1ccccc1)N1CCOCC1` (centres undefined), for which the cytotoxicity at 70.5 h worked out at 5.55%.

For `O=C(c1cocn1)N1CCC[C@]2(C[C@@H](Oc3ncccc3F)CO2)C1`, the cytotoxicity at 70.5 h is -5.09%.

For `COC(=O)c1ccc(CNC2CC(=O)N(Cc3cccc(F)c3)C2)cc1` (centres undefined), the cytotoxicity at 70.5 h came to 0.023%.

Turning to `Cc1ccc(CN[C@@H]2COC[C@H]2c2ccc(F)cc2)cc1C`, the cytotoxicity at 70.5 h stood at 3.52%.

Regarding `CC(C)(C)c1ccc(S(=O)(=O)CCN2CCNC(=O)CC2)cc1`, the cytotoxicity at 70.5 h was -10.4%.

Regarding `CC(=O)N1CC2(CCN(C(=O)CO)CC2)c2cc(C)ccc21`, the cytotoxicity at 70.5 h was -4.93%.

On to `COCCN1CCC(c2cncc(N(C)C)n2)CC1`, for which the cytotoxicity at 70.5 h was determined as 16.5%.

In the case of `O=C(CCC1CCCN(S(=O)(=O)C2CC2)C1)Nc1ccc(Cl)cc1` (centres undefined), the cytotoxicity at 70.5 h was determined as 34.5%.

`Cc1noc(NCc2cn(C)nc2-c2ccncc2)n1`: the cytotoxicity at 70.5 h was -11.4%.

Turning to `OCCN(Cc1nc(-c2ccc3c(c2)OCO3)no1)Cc1cccs1`, the cytotoxicity at 70.5 h is -16.8%.

With `Cc1ccccc1CC(C)(C)NC(=O)COc1cccc(C(N)=O)c1`, the cytotoxicity at 70.5 h is -0.108%.

For `Cc1nnc2n1CCN(C(C(=O)NC1CC1)c1ccccc1)C2` (centres undefined), the cytotoxicity at 70.5 h is -10.2%.

For `CNc1cncc(C2CCN(C(=O)c3coc(C)n3)CC2)n1`, the cytotoxicity at 70.5 h amounted to 24.2%.

For `COCC1(CNC(=O)Nc2cc(F)ccc2OC)CCCC1`, the cytotoxicity at 70.5 h was found to be 6.61%.

Regarding `CC(=O)N1CCC(c2cncc(N3CCC(O)C3)n2)CC1` (centres undefined), the cytotoxicity at 70.5 h was -2.45%.

In the case of `CCNc1nnc(SCc2nnc(C(C)(C)C)o2)s1`, the cytotoxicity at 70.5 h was -8.88%.

For the compound `CCCn1nccc1-c1nccnc1CC1CCN(C(C)=O)CC1`, the cytotoxicity at 70.5 h is -2.55%.

Regarding `CCn1nc2c(cc1=O)CN(Cc1nc(C)c(C)o1)CC2`, the cytotoxicity at 70.5 h is -15.3%.

As for `CC(C)CN1CCC2(COCc3cnc(-c4ccccc4)nc32)C1` (centres undefined), the cytotoxicity at 70.5 h is -3.09%.

On to `O=C(NCC1CCOC1)c1csc(-c2ccc(Cl)cc2)n1` (centres undefined), for which the cytotoxicity at 70.5 h is -26.9%.

Regarding `CCN(CC)CC(=O)NCc1cccnc1-n1cnc2ccccc21`, the cytotoxicity at 70.5 h was -3.36%.

As to `Cc1ccc(CNC(=O)NC(C)CN2CCOCC2)s1` (centres undefined), the cytotoxicity at 70.5 h is -6.15%.

Consider `CC(C)CC(N)C1=N/C(=C2\N=CN=N2)NO1` (centres undefined), for which the cytotoxicity at 70.5 h came out at 29.4%.

For `CN1CC(C(=O)N(C)Cc2cc(-c3cccnc3)no2)NC1=O` (centres undefined), the cytotoxicity at 70.5 h is -8.52%.

As to `Cc1cccc(CNC(Cc2ccsc2)c2nccs2)n1` (centres undefined), the cytotoxicity at 70.5 h was found to be 0.0464%.

Regarding `O=C(Nc1cccs1)N1CC(c2nc(C3CC3)no2)C1`, the cytotoxicity at 70.5 h is -5.71%.

On to `COc1cn(CC(=O)N2CCN(c3ccc(Cl)cc3)CC2)c(C)cc1=O`, for which the cytotoxicity at 70.5 h turned out to be 23.5%.

In the case of `CSCC(CCO)NC(=O)Nc1cc(Br)ccc1C` (centres undefined), the cytotoxicity at 70.5 h was -3.57%.

Turning to `CCc1nc(CN(C)C2CCN(CCOc3ccccc3)C2)no1` (centres undefined), the cytotoxicity at 70.5 h was 0.0512%.

For `Cc1ccc(CN(C)C(=O)C(C)n2ccnc2C(C)C)o1` (centres undefined), the cytotoxicity at 70.5 h is -18.9%.

As to `CCn1ccnc1CN1CCCN(C(=O)Cc2ccc(F)cc2)CC1`, the cytotoxicity at 70.5 h worked out at 17.5%.

`CCn1nccc1C(=O)NC(Cn1cccn1)C(C)(C)C` (centres undefined): the cytotoxicity at 70.5 h is 2.9%.

Turning to `CCOCC1CN(Cc2ccncc2)Cc2nn(C)cc21` (centres undefined), the cytotoxicity at 70.5 h was -7.15%.

For the compound `CN(Cc1cnn(C)c1)Cc1nc(Cc2cccc(Cl)c2)no1`, the cytotoxicity at 70.5 h is -7.96%.

In the case of `Cc1ccc2[nH]c(=O)c(CNCCCN3CCOCC3)cc2c1`, the cytotoxicity at 70.5 h was -8.68%.

Consider `CCc1ccc(CN(Cc2ccco2)C(C)C(C)C)nc1` (centres undefined), for which the cytotoxicity at 70.5 h came out at 1.59%.

For the compound `COc1ccc(CCCC(=O)N2CCCC(n3cccn3)C2)cc1` (centres undefined), the cytotoxicity at 70.5 h was determined as 14.5%.

As to `N#Cc1ccc(CNC(=O)NC2CCN(CC(F)F)CC2)cc1`, the cytotoxicity at 70.5 h was -9.49%.

On to `CN(Cc1noc(C2CC2)n1)C1CCN(Cc2ncc[nH]2)C1` (centres undefined), for which the cytotoxicity at 70.5 h is 12.2%.

With `CCn1cc(NC(=O)C2CCN(Cc3nc(C)c(C)s3)CC2)cn1`, the cytotoxicity at 70.5 h was -5.47%.

For `CN(C)CCN1C(=O)C[C@@H]2[C@@H]1CCN2S(=O)(=O)c1ccccc1`, the cytotoxicity at 70.5 h is -12.7%.

`Cc1csc(C2(NCc3nc(-c4ccco4)oc3C)CCCC2)n1`: the cytotoxicity at 70.5 h came out at 22.8%.

Take `Cn1ncc2c(NC3CCSC3)nc(-c3ccncc3)nc21` (centres undefined): the cytotoxicity at 70.5 h came out at 3.97%.

As to `Cc1cc(C(=O)N2CCCC3(C=Cc4ccccc4O3)CC2)cc(=O)[nH]1` (centres undefined), the cytotoxicity at 70.5 h is -7.57%.

With `CNC(=O)[C@@H]1C[C@H]2CN(Cc3ccc(C)s3)C[C@H]2N1C(C)=O`, the cytotoxicity at 70.5 h is -1.67%.

For `COCC(C)(C)NS(=O)(=O)C1CS(=O)(=O)c2ccccc21` (centres undefined), the cytotoxicity at 70.5 h was -17.4%.

Consider `CCCC(O)CN1CC(C)(C)CN(C(=O)c2ccc(Cl)cc2)CC1=O` (centres undefined), for which the cytotoxicity at 70.5 h was -9.8%.

Take `CCc1nc(-c2cncnc2C2CCCNC2)no1` (centres undefined): the cytotoxicity at 70.5 h is -1.26%.

In the case of `CN(C)c1ncc(-c2cncn2CCc2ccc3c(c2)OCCO3)cn1`, the cytotoxicity at 70.5 h was -7.82%.

Turning to `Cc1cc(C)c(-c2nc(-c3c(C)ncc4c3CCNC4)no2)o1`, the cytotoxicity at 70.5 h was -11.5%.

On to `Cc1cc(C(=O)NC(C)CC(=O)c2cccs2)n(C)n1` (centres undefined), for which the cytotoxicity at 70.5 h is -12.7%.

`CNS(=O)(=O)c1cccc(CNC(=O)c2c(C)nn(C)c2C)c1`: the cytotoxicity at 70.5 h was -3.24%.

With `Cc1cc(N2CCc3c(ncn3C)C2)nc(N)n1`, the cytotoxicity at 70.5 h was -0.513%.

For the compound `Cc1ccc(N(C)[C@@H]2CC[C@@H]3CN(C(=O)Cc4cccs4)C[C@@H]32)nn1`, the cytotoxicity at 70.5 h was -5.34%.

Consider `O=S(=O)(c1ccccc1)N1C[C@@H]2COC[C@]2(CN2CCOCC2)C1`, for which the cytotoxicity at 70.5 h is 13.1%.

For `CN1CCN(C2CCN(C(C(N)=O)c3ccccc3)CC2)C1=O` (centres undefined), the cytotoxicity at 70.5 h is -5.22%.

On to `CCN(Cc1ccc2c(c1)OCO2)C(=O)c1ccc(C)[nH]c1=O`, for which the cytotoxicity at 70.5 h came to 35.4%.

Regarding `COCC(=O)N1CCC2(CC1)CC(=O)N(Cc1ccc(Cl)cc1)C2`, the cytotoxicity at 70.5 h was -6.31%.

Regarding `CC(Cn1cccn1)NC(=O)N(C)Cc1ccc(Cl)s1` (centres undefined), the cytotoxicity at 70.5 h was -16.6%.

Turning to `Cc1cc(C2CCN(S(=O)(=O)N(C)C)CC2)ccn1`, the cytotoxicity at 70.5 h was determined as 12.7%.

In the case of `Cc1cc(F)ccc1OC1(C(=O)O)CCN(Cc2cccnc2)CC1`, the cytotoxicity at 70.5 h stood at 3.7%.

`COc1cccc(CNCCc2cccc(C(N)=O)c2)c1`: the cytotoxicity at 70.5 h is -8.65%.

For the compound `CC1CN(C)c2ccccc2CN1C(=O)c1cscn1` (centres undefined), the cytotoxicity at 70.5 h is -5.75%.

Regarding `c1ccc(-c2nc(CNC3CCc4ncnn4C3)cs2)cc1` (centres undefined), the cytotoxicity at 70.5 h was 0.00764%.

Consider `CCC(O)CN1CCN(C(=O)Cc2c(C)nc(C)[nH]c2=O)CC1` (centres undefined), for which the cytotoxicity at 70.5 h came to 3.13%.

As to `CC(=O)N1CCCC2(CCN(c3ccccc3)C2=O)C1` (centres undefined), the cytotoxicity at 70.5 h was found to be 12.8%.

For `COc1ccc(CCc2nnc(NC(=O)C3CC34CCC4)s2)cc1OC` (centres undefined), the cytotoxicity at 70.5 h is -8.17%.

Turning to `O=C1CC(c2ccsc2)c2sc(C(=O)O)c(-c3ccccc3)c2N1` (centres undefined), the cytotoxicity at 70.5 h was -11.4%.

`CCNC(=O)CN1CCOC(c2ccccc2C(F)(F)F)C1` (centres undefined): the cytotoxicity at 70.5 h was found to be 0.292%.

Regarding `CCn1cc(-c2n[nH]c(=O)n2-c2ccc3c(c2)OCO3)c(C)n1`, the cytotoxicity at 70.5 h is -4.59%.

Consider `COc1ccc(C(C(=O)O)N2CCC(Cn3cccn3)CC2)cc1F` (centres undefined), for which the cytotoxicity at 70.5 h is 22.7%.
